Results as given in patent US20250145946A1, “GENERATION OF PURE RETINAL CELLS FROM HUMAN PLURIPOTENT STEM CELLS” (Wisconsin Alumni Research Foundation, priority 2023, published 2025).

Assays:
[1] = test system: H9 human embryonic stem cells (hESCs); assay: qPCR analysis of neural and retinal gene expression during hPSC neural/retina differentiation; assay type: cell-based
Method: hPSCs (H9, IMR-90-4 and WC30) were maintained under E8/feeder-free culture condition and passaged at 1:20 ratio with Rock inhibitor. After each new passage, the cells were fed with E8 medium for another 1˜2 days to reach 30-40% confluence. To initiate retina differentiation, culture medium was replaced with Retina Induction Medium (RIM) containing Neural induction medium (NIM) comprising DMEM/F12 media containing 1% N2 and 1× nonessential amino acids (NEAA) supplemented with 10 μM SB431542 (TGF inhibitor, Stemgent, 04-0010-10); this new passage day was counted as day 0 (DO) of retina differentiation. Cells were then fed daily with RIM, or every other day based on the cell density. On day 4, the cells were dissociated by ReLeSR (STEM CELL) or EDTA and re-suspended in the fresh RIM containing 0.5 micromolar (μM) Rock inhibitor. Cell clusters were thereafter transferred to a cell culture flask and cultured in suspension. On day 5, the resulting cell spheres were fed with RIM without SB431542. […] At day 20, the spheres were cultured in Transition medium (DMEM/F12: Neurobasal (1:1) with 1% N2, 2% B27, 1×NEAA and 1×Glutamax) until analysis.
Total RNA was isolated with the RNeasy Plus Mini Kit according to the manufacturer's instructions. For quantitative PCR (qPCR), cDNA was synthesized using PrimeScript RT Reagent Kit (Takara). qPCR was performed using iTaq Universal SYBR Green Supermix (Bio-Rad). GAPDH gene was used as an internal control to equalize cDNA.
H9 human embryonic stem cells (hESCs) were differentiated to neuroepithelia by culture in chemically defined media as disclosed above and then treated with inhibitors against BMP (DMH1), TGF-beta (SB-431542, SB), or WNT (IWR1) pathways separately for 6 days during the neural induction process (FIG. 2a).
Because SOX1 expression was known to be absent in retinal progenitors (also shown in FIG. 7a), expression of SOX2 and SOX1 presented a simple determining marker for cortical vs. retinal progenitors.

hPSCs = assay: Single nucleus RNA-seq (snRNA-Seq) profiling of differentiating cells; assay type: cell-based, human; conditions: day 12
Method: Differentiating cells at multiple time points (day 0-day 12) indicated below were digested and collected for nucleus isolation and library construction (Tao et al., 2024, Nat. Biotech. 12:1404-1416; https://doi.org/10.1038/s41587-023-01977-4). All libraries prepared in this way were processed by NovaSeq. Alignment of raw sequencing reads, and generation of feature barcode matrices were performed using Cellranger (7.1.0). Seurat (4.1.3) was used to process feature barcode matrices and analyze snRNA-Seq data32. All samples were processed under standard quality control metrics. Single cells with more than 300 unique genes (nFeature) and less than 15% or 20% mitochondrial gene reads (percent.mt) were selected for follow-up analysis. Additional procedures were used to exclude low quality cells and doublets in each sample (nFeature<6,000 and nCount<20,000). […] After quality control, all snRNA-Seq data were normalized using the SCTransform (v2) function in Seurat with mitochondria genes regressed out (Choudhary, S. et al., 2022, Genome Biol 23, 27). PCA and UMAP reduction, gene feature plots were done by using Seurat as well.
Single nucleus RNA-seq (snRNA-Seq) assays were performed to profile and compare the differentiating cells under the SB or SB+DMH1 conditions (FIG. 2d). On day 6, after filtering low quality and dead cells, 8,533 and 9,756 cells in the SB and SB+DMH1 groups were collected, respectively. Uniform manifold approximation and projection (UMAP) clustering identified 11 clusters in both conditions (FIG. 2e).
To verify this observation, cells were differentiated with only SB for the first 6 days to generate primitive neuroepithelial cells and then how the BMP pathway regulated retinal differentiation was investigated by treating the cells with or without DMH1 at day 6 (FIG. 2d). Cell nuclei were collected on day 12 for snRNA-Seq to compare differentiating cells in the control (medium without inhibitors) and under DMH1 conditions. […] UMAP clustering identified 13 clusters (FIGS. 2h-2j, FIG. 10a).

[2] = test system: H9 human embryonic stem cells (hESCs); assay: Flow cytometry of differentiating cells for SOX2, SOX1 and PAX6; assay type: cell-based; conditions: day 12; FIG. 8a
Method: Flow cytometry was performed following manufacturer's instruction using Transcription Factor Buffer Set which is designed for transcription factor staining. Briefly, single cells were prepared using TrypLE Express Enzyme and fixed in the fixation buffer provided in the kit at 2-8° C. for 45 min. After 3 washings with the permeable buffer, the primary antibodies were added to cells for 45 min at 2-8° C. in a light-tight box. The cells were washed 3 times before incubation with fluorescently conjugated secondary antibodies for 45 mins at 2-8° C. in a light-tight box. After 3 times of washing, cells were suspended in the washing buffer and analyzed by flow cytometry (BD LSR or BD LSRII). Data analysis was performed using FlowJo. Antibodies used were: SOX2 (R&D Systems AF2018), SOX1 (R&D Systems AF3369), PAX6 Alexa Fluor 488 (BD Biosciences Cat #561664), SOX2-V450 (BD Biosciences Cat #561610), SOX1-PE (BD Biosciences Cat #561592), PAX6 (Covance Cat #PRB-278P), VSX2 (Exalpha, Cat #X1180P), CRX (Abnova, Cat #H00001406-M02), OPSIN (MilliporeSigma, Cat #AB5407). Due to the lack of retinal differentiation resulting from BMP inhibition, expression of retina genes was examined at multiple time points in SB and SB plus dorsomorphin homolog 1 (SB+DMH1), which was a well-established dual-SMAD inhibition condition for neural conversion (Chambers, S. M. et al., 2009, Nat Biotechnol 27:275-280). […]

[3] = inhibitor for 6 days during neural induction, vs control, qPCR, FIG. 2b
[4] = SB day 0-5, then DMH1 from day 6, vs control
[5] = inhibitor for 6 days during neural induction, qPCR, FIG. 2b

| SMILES | expression of neural genes including PAX6 and SOX1 [1, 3] | expression of retinal lineage-specific markers RAX and VSX2 [1, 3] | GLI3 expression (hPSCs; [4]) | MKI67 and NES expression levels in progenitor clusters (hPSCs; [4]) | expression of EFTFs PAX6, LHX2, SIX3 and OTX2 (hPSCs; [4]) | expression of BMP target genes ID1/2/4 (hPSCs; SB day 0-5, then DMH1 from day 6, FIG. 10b) | effect on retinal differentiation [1, 5] | expression of SOX1 (definitive neuroepithelial marker) [1, 5] | expression pattern of SOX1 over time ([1]; time course after day 6, SB condition vs BMP2 administration, FIG. 3c) | SOX1 and SOX2 double positive cells (definitive neuroepithelial cells) [2] |
| --- | --- | --- | --- | --- | --- | --- | --- | --- | --- | --- |
| CC(C)Oc1ccc(-c2cnc3c(-c4ccnc5ccccc45)cnn3c2)cc1 [DMH1] | efficiently induced | did not show much change | downregulated | much lower | much lower or even absent | much lower levels |  |  |  |  |
| O=C(Nc1cccc2cccnc12)c1ccc(N2C(=O)[C@@H]3[C@H](C2=O)[C@@H]2C=C[C@H]3C2)cc1 [IWR1] |  |  |  |  |  |  | did not have much effect |  |  |  |
| NC(=O)c1ccc(-c2nc(-c3ccc4c(c3)OCO4)c(-c3ccccn3)[nH]2)cc1 [SB] |  | highest expression level |  |  |  |  |  | low expression | increased steadily | 14% |
